Measurements taken from US10851412B2, “Cell potency assay for therapeutic potential” (FATE THERAPEUTICS, INC., priority 2013, dated 2020).

Test system: Human umbilical cord blood
Assay: Cell potency assay: real-time PCR signature gene expression score of treated cord blood
Assay type: cell-based
Experimental: Human umbilical cord blood was treated ex vivo with 16,16, dimethyl prostaglandin E2 (dmPGE2) prior to transplantation. Real-time PCR transcript quantitation of gene expression from the treated cord blood cells was used to determine the therapeutic potential of the cells. RNA was extracted from an aliquot (100 uL) of the treated cord blood cells using the PicoPure RNA Isolation kit (Life Technologies) using the manufacturer's recommended protocol. Total RNA was quantified using the Nanodrop 2000 Spectrophotometer (Thermo Scientific). Complimentary DNA (cDNA) was reverse transcribed from 50 ng of total RNA using the High-Capacity cDNA Reverse Transcription Kit (Life Technologies).
Quantitative PCR was performed in triplicate for each gene in the amplified cDNA using StepOne Plus (Applied Biosystems) and Taqman gene expression assays (Life Technologies) and 40 cycles of real-time PCR. Results of the real-time PCR were analyzed using the StepOne Software v2.1 analysis package (Applied Biosystems). Expression values of the transcripts were normalized to the Taqman gene expression average for the housekeeping genes, GAPDH and HPRT1, to determine the relative expression levels (ΔCt values). […]

## CCCCC(C)(C)[C@H](O)/C=C/[C@H]1[C@H](O)CC(=O)[C@@H]1C/C=C\CCCC(=O)O [dmPGE2, 16,16, dimethyl prostaglandin E2]
Human umbilical cord blood after a two hour treatment
  gene expression in the group of signature genes (real-time PCR): Increased gene expression
Human umbilical cord blood treated ex vivo, about two hours at 37° C. with 10 μM dmPGE2, test samples n=10, mean +/- SD, positive scores cluster with samples having therapeutic potential
  gene expression score (standardized Euclidean distance model vs training set): 16.8+/−2.2
